Where two headings read alike, the source gives them in different places.
Test: Placebo controlled, dose escalation pharmacokinetic study of oral (Z)-Endoxifen capsules (serum endoxifen; incl. accumulation ratios and dose linearity)
Format: in vivo, human
Settings: for AUC(0-t) / Cmax / Tmax / half-life / AUC(0-inf) / AUC / Vd/F: female, human, serum, po; for AUC(0-inf): read-out: AUC0-inf; for AUC: read-out: AUC to last time point; for Vd/F: read-out: volume of distribution (Vd/F); for time to attain steady state: once daily oral dosing
Source text: An objective of the study was to assess the safety and tolerability of oral (Z)-Endoxifen when administered […] orally as a capsule to healthy female volunteers. A secondary objective was to assess the pharmacokinetics of multiple doses of oral (Z)-Endoxifen in the subjects.
Generally, healthy female volunteers aged ≥18 years and ≤65 years were enrolled. 24 participants were enrolled in 3 cohorts and will be administered study drug orally. Three dose levels of orally administered (Z)-Endoxifen were investigated in 3 cohorts. In each cohort participants were randomized to receive an oral (Z)-Endoxifen or placebo in a blinded fashion. Enteric-resistant capsules used in the study were designed as delayed release capsules to resist rupture for at least 30 minutes, but typically, for about 2 hours, under gastric conditions and then open fully in intestinal fluid (DRCaps; Capsugel, a Lonza Company, USA). Enteric-resistant (Swedish Orange size Zero (0); Capsugel, USA) DRCaps capsules manually filled with 1, 2 or 4 mg of (Z)-endoxifen neat in compliance with GMP requirements were used. Placebo capsules contained microcrystalline cellulose an inert common capsule and tablet excipient.
Each cohort enrolled 8 participants, with 6 participants receiving (Z)-Endoxifen 1 mg capsules orally at 1 mg (Cohort 1), 2 mg (Cohort 2) or 4 mg (Cohort 3) doses and 2 participants receiving matching placebo capsules. In Cohort 1 (Dose Level=1 mg) two participants (sentinels) were dosed 24 hours prior to the remaining participants. One sentinel was dosed with (Z)-Endoxifen and the other with placebo. The remaining six participants in Cohort 1 were dosed as no safety concerns were identified in the sentinel participants. The non-sentinel participants in Cohort 1 were admitted to the clinical research facility at least one day later than the sentinels. There were no sentinels in Cohorts 2 and 3.
Participant engagement in this study was for a period of 56 days. These included a 28 day screening period, and a 7 day post treatment period for Pharmacokinetic (PK) sampling. There were two confinement periods, one at the beginning and one at the end of the dosing periods. Participants were confined to the clinical facility on Days-1 through to Day 2 and Days 21 and 22. If participants were to experience any clinically significant adverse events during the study, they would have been required to remain in the clinical facility for further observation at the discretion of the Principal Investigator (PI).
Healthy female volunteers were screened within 28 days prior to commencement of dosing. Participants were admitted to the clinical facility on Day-1 for up to 3 days. The first dose of (Z)-Endoxifen or placebo capsules was administered on Day 1. Following completion of all safety assessments and sampling for PK analyses, participants were discharged from the clinical facility on Day 2. The first dose on Day 1 was followed by a 6-day treatment free period (Days 2-7). Each participant returned to the clinical facility for PK blood draws and safety assessments during the treatment free period on study Days 4 and 6. On Day 8 participants commenced daily administration of (Z)-Endoxifen capsules or placebo capsules for 14 consecutive days (Days 8-21). Participants were supplied with study drug capsules and asked to self administer daily. Participants visited the clinical facility on Days 11, 14 and 17, prior to dose administration, for PK blood draws and safety assessments. On the morning of Day 21 each participant returned to the clinical facility prior to dose administration and were confined to the facility until Day 22 to allow for the collection of PK blood draws and safety assessments. The Day 21 dose was the last administration of study drug. Participants were discharged from the clinical facility on Day 22 and returned for PK blood draws and safety assessments on study Days 24, 26, and 28. […]

[1] = 4 mg, Day 1, dose 4 mg oral, GeoMean, N 6
[2] = 4 mg, Day 1, dose 4 mg oral, Mean, N 6
[3] = 4 mg, Day 1, dose 4 mg oral, Median, N 6

AUC(0-t) (2 mg/day, Day 21, 2 mg/day oral (n = 6), read-out: AUC24 hr, Arithmetic Mean): 911 ng·h/mL
Cmax (2 mg/day, Day 21, 2 mg/day oral (n = 6), read-out: Cmax, Arithmetic Mean): 50 ng/mL
Tmax (2 mg/day, Day 21, 2 mg/day oral (n = 6), read-out: Median Tmax): 4 h
Tmax (2 mg/day, Day 21, 2 mg/day oral (n = 6), read-out: Tmax (Range)): 2 to 6.05 h
half-life (2 mg/day, Day 21, 2 mg/day oral (n = 6), read-out: t1/2, Arithmetic Mean (converted)): 43.4 h
AUC(0-inf) [1]: 1700 ng·h/mL
AUC(0-t) (4 mg, Day 1, dose 4 mg oral, GeoMean, N 6, read-out: AUC24hr): 521 ng·h/mL
AUC [1]: 1420 ng·h/mL
Cmax (4 mg, Day 1, dose 4 mg oral, GeoMean, N 6, read-out: Cmax): 29.1 ng/mL
Tmax (4 mg, Day 1, dose 4 mg oral, GeoMean, N 6, read-out: Tmax): 5.15 h
half-life (4 mg, Day 1, dose 4 mg oral, GeoMean, N 6, read-out: apparent terminal half life (t½) (converted)): 40.7 h
Vd/F [1]: 138 L
AUC(0-inf) [2]: 2020 ng·h/mL
AUC(0-t) (4 mg, Day 1, dose 4 mg oral, Mean, N 6, read-out: AUC24hr): 587 ng·h/mL
AUC [2]: 1650 ng·h/mL
Cmax (4 mg, Day 1, dose 4 mg oral, Mean, N 6, read-out: Cmax): 32.5 ng/mL
Tmax (4 mg, Day 1, dose 4 mg oral, Mean, N 6, read-out: Tmax): 5.56 h
half-life (4 mg, Day 1, dose 4 mg oral, Mean, N 6, read-out: apparent terminal half life (t½) (converted)): 41.6 h
Vd/F [2]: 154 L
AUC(0-inf) [3]: 1760 ng·h/mL
AUC(0-t) (4 mg, Day 1, dose 4 mg oral, Median, N 6, read-out: AUC24hr): 539 ng·h/mL
AUC [3]: 1420 ng·h/mL
Cmax (4 mg, Day 1, dose 4 mg oral, Median, N 6, read-out: Cmax): 29.5 ng/mL
Tmax (4 mg, Day 1, dose 4 mg oral, Median, N 6, read-out: Tmax): 5.08 h
half-life (4 mg, Day 1, dose 4 mg oral, Median, N 6, read-out: apparent terminal half life (t½) (converted)): 39.9 h
Vd/F [3]: 131 L
AUC(0-t) (4 mg, Day 21, dose 4 mg oral once daily, GeoMean, N 6, read-out: AUC24hr): 1740 ng·h/mL
Cmax (4 mg, Day 21, dose 4 mg oral once daily, GeoMean, N 6, read-out: Cmax): 100 ng/mL
Tmax (4 mg, Day 21, dose 4 mg oral once daily, GeoMean, N 6, read-out: Tmax): 4.75 h
half-life (4 mg, Day 21, dose 4 mg oral once daily, GeoMean, N 6, read-out: apparent terminal half life (t½) (converted)): 44.6 h
Vd/F (4 mg, Day 21, dose 4 mg oral once daily, GeoMean, N 6): 148 L
AUC(0-t) (4 mg, Day 21, dose 4 mg oral once daily, Mean, N 6, read-out: AUC24hr): 2040 ng·h/mL
Cmax (4 mg, Day 21, dose 4 mg oral once daily, Mean, N 6, read-out: Cmax): 115 ng/mL
Tmax (4 mg, Day 21, dose 4 mg oral once daily, Mean, N 6, read-out: Tmax): 5.33 h
half-life (4 mg, Day 21, dose 4 mg oral once daily, Mean, N 6, read-out: apparent terminal half life (t½) (converted)): 45.1 h
Vd/F (4 mg, Day 21, dose 4 mg oral once daily, Mean, N 6): 189 L
AUC(0-t) (4 mg, Day 21, dose 4 mg oral once daily, Median, N 6, read-out: AUC24hr): 2470 ng·h/mL
Cmax (4 mg, Day 21, dose 4 mg oral once daily, Median, N 6, read-out: Cmax): 131 ng/mL
Tmax (4 mg, Day 21, dose 4 mg oral once daily, Median, N 6, read-out: Tmax): 5 h
half-life (4 mg, Day 21, dose 4 mg oral once daily, Median, N 6, read-out: apparent terminal half life (t½) (converted)): 45.3 h
Vd/F (4 mg, Day 21, dose 4 mg oral once daily, Median, N 6): 106 L
AUC(0-t) (4 mg/day, Day 1, 4 mg/day oral (n = 6), read-out: AUC24 hr, Arithmetic Mean): 587 ng·h/mL
Cmax (4 mg/day, Day 1, 4 mg/day oral (n = 6), read-out: Cmax, Arithmetic Mean): 32.5 ng/mL
Tmax (4 mg/day, Day 1, 4 mg/day oral (n = 6), read-out: Median Tmax): 5.08 h
Tmax (4 mg/day, Day 1, 4 mg/day oral (n = 6), read-out: Tmax (Range)): 3 to 6 h
half-life (4 mg/day, Day 1, 4 mg/day oral (n = 6), read-out: t1/2, Arithmetic Mean (converted)): 41.6 h
AUC(0-t) (4 mg/day, Day 21, 4 mg/day oral (n = 6), read-out: AUC24 hr, Arithmetic Mean): 2040 ng·h/mL
Cmax (4 mg/day, Day 21, 4 mg/day oral (n = 6), read-out: Cmax, Arithmetic Mean): 115 ng/mL
Tmax (4 mg/day, Day 21, 4 mg/day oral (n = 6), read-out: Median Tmax): 5 h
Tmax (4 mg/day, Day 21, 4 mg/day oral (n = 6), read-out: Tmax (Range)): 2 to 10 h
half-life (4 mg/day, Day 21, 4 mg/day oral (n = 6), read-out: t1/2, Arithmetic Mean (converted)): 45.1 h
time to attain steady state: ≤ 7 days
time to attain steady state (listed as (Z)-endoxifen): approximately 7 days
Structure (SMILES): CC/C(=C(\c1ccc(O)cc1)c1ccc(OCCNC)cc1)c1ccccc1 [(Z)-Endoxifen, (Z)-4-(1-(4-(2-(methylamino)ethoxy)phenyl)-2-phenylbut-1-enyl) phenol]

Reference: US12275684B2, “Methods for making and using endoxifen” (Atossa Therapeutics, Inc., priority 2017, dated 2025)
